Laboratory results from patent US10392383B2, “3-(1H-benzo[d]imidazol-2-yl)-1H-pyrazolo[4,3-b]pyridines and therapeutic uses thereof” (Samumed, LLC, priority 2015, dated 2019).

Tested on: primary human fibroblasts derived from IPF patients (LL29 cells) treated with TGF-β1
Experiment: Inhibition of the fibrotic process: αSMA staining in TGF-β1-treated LL29 fibroblasts
Assay type: cell-based
Conditions: Fibroblast; for EC50: 96 h, LL29 fibroblasts treated with TGF-β1 (20 ng/mL), 4 days, Table 4; for inhibition at 10 µM: LL29 fibroblasts treated with TGF-β1, Table 4, read-out: percent inhibition at 10 μM (given in parentheses for EC50 >10 μM)
From the text: Representative compounds were screened using primary human fibroblasts (derived from IPF patients) treated with TGF-β1 to determine their ability to inhibit the fibrotic process.
Human Fibroblast Cell Culture: Primary human fibroblasts derived from IPF patients (LL29 cells) [^1Xiaoqiu Liu, et. al., “Fibrotic Lung Fibroblasts Show Blunted Inhibition by cAMP Due to Deficient cAMP Response Element-Binding Protein Phosphorylation”, Journal of Pharmacology and Experimental Therapeutics (2005), 315(2), 678-687; ^2Watts, K. L., et. al., “RhoA signaling modulates cyclin D1 expression in human lung fibroblasts; implications for idiopathic pulmonary fibrosis”, Respiratory Research (2006), 7(1), 88] were obtained from American Type Culture Collection (ATCC) and expanded in F12 medium supplemented with 15% Fetal Bovine Serum and Penicillin/Streptomycin.
Compound Screening: Each compound was dissolved in DMSO as a 10 mM stock and used to prepare compound source plates. Serial dilution (1:2, 11-point dose-response curves from 10 μM to […]) and compound transfer was performed using the ECHO 550 (Labcyte, Sunnyvale, Calif.) into 384-well clear bottom assay plates (Greiner Bio-One) with appropriate DMSO backfill for a final DMSO concentration of 0.1%. LL29 cells are plated at 1,500 cells/well in 80 μL/well F12 medium supplemented with 1% Fetal Bovine Serum. One hour after addition of the cells, TGF-β1 (Peprotech; 20 ng/mL) was added to the plates to induce fibrosis (ref. 1 and 2 above). Wells treated with TGF-β1 and containing DMSO were used as controls. Cells were incubated at 37° C. and 5% CO2 for 4 days. Following incubation for 4 days, SYTOX green nucleic acid stain (Life Technologies [Thermo Fisher Scientific]) was added to the wells at a final concentration of 1 μM and incubated at room temperature for 30 min. Cells were then fixed using 4% formaldehyde (Electron Microscopy Sciences), washed 3 times with PBS followed by blocking and permeabilization using 3% Bovine Serum Albumin (BSA; Sigma) and 0.3% Triton X-100 (Sigma) in PBS. Cells were then stained with antibody specific to α-smooth muscle actin (αSMA; Abcam) (ref. 1 and 2 above) in 3% Bovine Serum Albumin (BSA; Sigma) and 0.3% Triton X-100 (Sigma) in PBS, and incubated overnight at 4° C. Cells were then washed 3 times with PBS, followed by incubation with Alexa Flor-647 conjugated secondary antibody (Life Technologies [Thermo Fisher Scientific]) and DAPI at room temperature for 1 hour. Cells were then washed 3 times with PBS and plates were sealed for imaging. αSMA staining was imaged by excitation at 630 nm and emission at 665 nm and quantified using the Compartmental Analysis program on the CellInsight CX5 (Thermo Scientific). Dead or apoptotic cells were excluded from analysis based on positive SYTOX green staining. % of total cells positive for αSMA were counted in each well and normalized to the average of 11 wells treated with TGF-β1 on the same plate using Dotmatics' Studies Software. The normalized averages (fold change over untreated) of 3 replicate wells for each compound concentration were used to create dose-responses curves and EC50 values were calculated using non-linear regression curve fit in the Dotmatics' Studies Software. For EC50 of >10 μM, the percent inhibition at 10 μM is provided.

SMILES | EC50 [nM] | inhibition at 10 µM [%]
Fc1cccc(-c2cccc3[nH]c(-c4n[nH]c5ccc(-c6cncc(CN7CCC(F)(F)C7)c6)nc45)nc23)c1 [Compound 26, 5-(5-((3,3-Difluoropyrrolidin-1-yl)methyl)pyridin-3-yl)-3-(4-(3-fluorophenyl)-1H-benzo[d]imidazol-2-yl)-1H-pyrazolo[4,3-b]pyridine] | 1650 | 
CC(C)C(=O)Nc1cncc(-c2ccc3[nH]nc(-c4nc5c(-c6ccccc6F)cccc5[nH]4)c3n2)c1 [Compound 65, N-(5-(3-(4-(2-fluorophenyl)-1H-benzo[d]imidazol-2-yl)-1H-pyrazolo[4,3-b]pyridin-5-yl)pyridin-3-yl)isobutyramide] | 4970 | 
CC(C)(C)CC(=O)Nc1cncc(-c2ccc3[nH]nc(-c4nc5c(-c6ccccc6F)cccc5[nH]4)c3n2)c1 [Compound 72, N-(5-(3-(4-(2-Fluorophenyl)-1H-benzo[d]imidazol-2-yl)-1H-pyrazolo[4,3-b]pyridin-5-yl)pyridin-3-yl)-3,3-dimethylbutanamide] | 2180 | 
O=C(Nc1cncc(-c2ccc3[nH]nc(-c4nc5c(-c6ccccc6F)cccc5[nH]4)c3n2)c1)C1CCCC1 [Compound 78, N-(5-(3-(4-(2-Fluorophenyl)-1H-benzo[d]imidazol-2-yl)-1H-pyrazolo[4,3-b]pyridin-5-yl)pyridin-3-yl)cyclopentanecarboxamide] | 2490 | 
Fc1ccccc1-c1cccc2[nH]c(-c3n[nH]c4ccc(-c5cncc(CNCC6CCCC6)c5)nc34)nc12 [Compound 81, 1-Cyclopentyl-N-((5-(3-(4-(2-fluorophenyl)-1H-benzo[d]imidazol-2-yl)-1H-pyrazolo[4,3-b]pyridin-5-yl)pyridin-3-yl)methyl)methanamine] | 627 | 
c1ccc(CNCc2cncc(-c3ccc4[nH]nc(-c5nc6c(-c7cccnc7)cccc6[nH]5)c4n3)c2)cc1 [Compound 108, N-Benzyl-1-(5-(3-(4-(pyridin-3-yl)-1H-benzo[d]imidazol-2-yl)-1H-pyrazolo [4,3-b]pyridin-5-yl)pyridin-3-yl)methanamine] | 2540 | 
c1cc(-c2ccncc2)c2nc(-c3n[nH]c4ccc(-c5ccncc5)nc34)[nH]c2c1 [Compound 130, 5-(Pyridin-4-yl)-3-(4-(pyridin-4-yl)-1H-benzo[d]imidazol-2-yl)-1H-pyrazolo [4,3-b]pyridine] | 1070 | 
O=C(Nc1cncc(-c2ccc3[nH]nc(-c4nc5c(-c6ccncc6)cccc5[nH]4)c3n2)c1)C1CCCCC1 [Compound 135, N-(5-(3-(4-(pyridin-4-yl)-1H-benzo[d]imidazol-2-yl)-1H-pyrazolo[4,3-b]pyridin-5-yl)pyridin-3-yl)cyclohexanecarboxamide] | > 10000 | 0
O=C(Nc1cncc(-c2ccc3[nH]nc(-c4nc5c(-c6ccccn6)cccc5[nH]4)c3n2)c1)c1ccccc1 [Compound 151, N-(5-(3-(4-(Pyridin-2-yl)-1H-benzo[d]imidazol-2-yl)-1H-pyrazolo[4,3-b]pyridin-5-yl)pyridin-3-yl)benzamide] | 5110 | 
CCCCC(=O)Nc1cncc(-c2ccc3[nH]nc(-c4nc5c(-c6ccccn6)cccc5[nH]4)c3n2)c1 [Compound 159, N-(5-(3-(4-(Pyridin-2-yl)-1H-benzo[d]imidazol-2-yl)-1H-pyrazolo[4,3-b]pyridin-5-yl)pyridin-3-yl)pentanamide] | 948 | 
CN(C)c1cncc(-c2ccc3[nH]nc(-c4nc5c(N6CCCCC6)cccc5[nH]4)c3n2)c1 [Compound 175, N,N-dimethyl-5-(3-(4-(piperidin-1-yl)-1H-benzo[d]imidazol-2-yl)-1H-pyrazolo[4,3-b]pyridin-5-yl)pyridin-3-amine] | 4690 | 
CN1CCN(c2cccc3[nH]c(-c4n[nH]c5ccc(-c6cncnc6)nc45)nc23)CC1 [Compound 251, 3-(4-(4-Methylpiperazin-1-yl)-1H-benzo[d]imidazol-2-yl)-5-(pyrimidin-5-yl)-1H-pyrazolo[4,3-b]pyridine] | 2430 | 
O=C(Nc1cncc(-c2ccc3[nH]nc(-c4nc5c(-c6ccsc6)cccc5[nH]4)c3n2)c1)c1ccccc1 [Compound 291, N-(5-(3-(4-(Thiophen-3-yl)-1H-benzo[d]imidazol-2-yl)-1H-pyrazolo[4,3-b]pyridin-5-yl)pyridin-3-yl)benzamide] | 2620 | 
Cc1ccc(-c2cccc3[nH]c(-c4n[nH]c5ccc(-c6cncc(NC(=O)C7CCCC7)c6)nc45)nc23)s1 [Compound 414, N-(5-(3-(4-(5-Methylthiophen-2-yl)-1H-benzo[d]imidazol-2-yl)-1H-pyrazolo [4,3-b]pyridin-5-yl)pyridin-3-yl)cyclopentanecarboxamide] | > 10000 | 42.2
CS(=O)(=O)NCc1cc(F)cc(-c2cccc3[nH]c(-c4n[nH]c5ccc(-c6cncc(NC(=O)c7ccccc7)c6)nc45)nc23)c1 [Compound 487, N-(5-(3-(4-(3-Fluoro-5-(methylsulfonamidomethyl)phenyl)-1H-benzo[d]imidazol-2-yl)-1H-pyrazolo[4,3-b]pyridin-5-yl)pyridin-3-yl)benzamide] | > 10000 | 0
c1cc(-c2ccncc2)c2nc(-c3n[nH]c4ccc(-c5cncc(OC6CCNCC6)c5)nc34)[nH]c2c1 [Compound 576, 5-(5-(Piperidin-4-yloxy)pyridin-3-yl)-3-(4-(pyridin-4-yl)-1H-benzo[d]imidazol-2-yl)-1H-pyrazolo[4,3-b]pyridine] | > 10000 | 9.2
c1ccc(COc2cncc(-c3ccc4[nH]nc(-c5nc6c(-c7ccncc7)cccc6[nH]5)c4n3)c2)cc1 [Compound 582, 5-(5-(Benzyloxy)pyridin-3-yl)-3-(4-(pyridin-4-yl)-1H-benzo[d]imidazol-2-yl)-1H-pyrazolo[4,3-b]pyridine] | 1420 | 
c1cc(-c2ccncc2)c2nc(-c3n[nH]c4ccc(-c5cnccn5)nc34)[nH]c2c1 [Compound 584, 5-(Pyrazin-2-yl)-3-(4-(pyridin-4-yl)-1H-benzo[d]imidazol-2-yl)-1H-pyrazolo[4,3-b]pyridine] | > 10000 | 10
O=C(CC1CCNCC1)Nc1cncc(-c2ccc3[nH]nc(-c4nc5c(-c6ccccn6)cccc5[nH]4)c3n2)c1 [Compound 593, 2-(Piperidin-4-yl)-N-(5-(3-(4-(pyridin-2-yl)-1H-benzo[d]imidazol-2-yl)-1H-pyrazolo[4,3-b]pyridin-5-yl)pyridin-3-yl)acetamide] | 1370 | 
Cc1cn(-c2cccc3[nH]c(-c4n[nH]c5ccc(C6=CCNCC6)nc45)nc23)cn1 [Compound 618, 3-(4-(4-Methyl-1H-imidazol-1-yl)-1H-benzo[d]imidazol-2-yl)-5-(1,2,3,6-tetrahydropyridin-4-yl)-1H-pyrazolo[4,3-b]pyridine] | > 10000 | 7.7
Cc1cn(-c2cccc3[nH]c(-c4n[nH]c5ccc(-c6cncc(N7CC(N)C7)n6)nc45)nc23)cn1 [Compound 622, 1-(6-(3-(4-(4-Methyl-1H-imidazol-1-yl)-1H-benzo[d]imidazol-2-yl)-1H-pyrazolo[4,3-b]pyridin-5-yl)pyrazin-2-yl)azetidin-3-amine] | > 10000 | 0
Cc1cn(-c2cccc3[nH]c(-c4n[nH]c5ccc(-c6cncc(OCCN(C)C)c6)nc45)nc23)cn1 [Compound 627, N,N-Dimethyl-2-((5-(3-(4-(4-methyl-1H-imidazol-1-yl)-1H-benzo[d]imidazol-2-yl)-1H-pyrazolo[4,3-b]pyridin-5-yl)pyridin-3-yl)oxy)ethan-1-amine] | 6760 | 
CN1CCN(c2cccc3[nH]c(-c4n[nH]c5ccc(-c6cnccn6)nc45)nc23)CC1 [Compound 648, 3-(4-(4-Methylpiperazin-1-yl)-1H-benzo[d]imidazol-2-yl)-5-(pyrazin-2-yl)-1H-pyrazolo[4,3-b]pyridine] | > 10000 | 0
